Values belong to the compound of their own block, whether it stands above or below them.
Legend:
[1] = biological target: T1, human CD73 recombinant protein (Homo sapiens, UniProt P21589); assay: Enzyme assay, CD73 (Malachite green kit); type: biochemical; settings: AMP added, incubation 30 minutes
T1 construct: made in house
T1 sequence (P21589 27-549): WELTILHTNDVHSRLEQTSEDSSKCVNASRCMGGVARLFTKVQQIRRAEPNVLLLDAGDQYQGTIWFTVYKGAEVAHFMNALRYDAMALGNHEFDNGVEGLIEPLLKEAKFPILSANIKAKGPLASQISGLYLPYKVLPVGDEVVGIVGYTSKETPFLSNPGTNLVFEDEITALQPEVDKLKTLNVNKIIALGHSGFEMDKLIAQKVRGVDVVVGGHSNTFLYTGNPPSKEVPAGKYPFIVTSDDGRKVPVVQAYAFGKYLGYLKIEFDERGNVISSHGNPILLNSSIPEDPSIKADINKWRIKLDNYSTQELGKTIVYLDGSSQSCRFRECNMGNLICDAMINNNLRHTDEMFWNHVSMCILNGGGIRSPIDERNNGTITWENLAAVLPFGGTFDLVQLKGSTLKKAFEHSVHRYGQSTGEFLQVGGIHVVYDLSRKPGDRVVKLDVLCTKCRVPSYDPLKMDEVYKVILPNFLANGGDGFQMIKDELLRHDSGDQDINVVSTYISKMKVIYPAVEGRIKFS
Protocol: (§1) Referring to a method described in a reference document [Front Pharmacol. 2018 Mar. 1; 9:153], an enzyme assay was performed. Each of human CD73 and CD39 recombinant proteins was produced and then purified and isolated, and used in an enzyme assay. A buffer was basically 25 mM Tris, 5 mM MgCl2, pH 7.5 as an assay buffer, and for assay, human CD73 and CD39 recombinant protein were diluted at an appropriate concentration, respectively, in the assay buffer, adenosine monophosphate (AMP) (Sigma, Catalog #A1752) at an appropriate concentration was added, and then incubation was performed for 30 minutes. At the time, the azolopyrimidine heterocyclic compounds of the present invention were treated for each concentration and incubated together, thereby measuring a degree of inhibiting activity of CD73 or CD39.

[2] = biological target: T2, human CD39 recombinant protein (Homo sapiens, UniProt P49961); assay: Enzyme assay, CD39 (Malachite green kit); type: biochemical; settings: AMP added, incubation 30 minutes
T2 construct: made in house
T2 sequence (P49961 1-510): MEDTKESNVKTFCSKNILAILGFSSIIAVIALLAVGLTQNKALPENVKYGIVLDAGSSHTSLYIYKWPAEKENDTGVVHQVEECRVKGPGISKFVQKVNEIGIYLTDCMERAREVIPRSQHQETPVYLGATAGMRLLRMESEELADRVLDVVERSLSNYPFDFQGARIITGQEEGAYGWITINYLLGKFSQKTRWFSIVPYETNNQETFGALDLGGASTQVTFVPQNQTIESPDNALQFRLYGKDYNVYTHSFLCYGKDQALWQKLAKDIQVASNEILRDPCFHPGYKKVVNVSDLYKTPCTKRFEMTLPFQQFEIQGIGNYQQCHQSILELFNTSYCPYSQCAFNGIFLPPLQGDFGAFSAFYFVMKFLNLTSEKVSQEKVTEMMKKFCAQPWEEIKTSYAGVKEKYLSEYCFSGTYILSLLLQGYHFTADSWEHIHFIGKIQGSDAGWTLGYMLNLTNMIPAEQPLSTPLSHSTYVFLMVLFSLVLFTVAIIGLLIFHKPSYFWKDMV
Protocol: as §1

Structure (SMILES): CN(Cc1cccc(F)c1)c1ncnc2c1ncn2[C@@H]1O[C@H](CO[Si](c2ccccc2)(c2ccccc2)C(C)(C)C)[C@H]2OC(C)(C)O[C@H]21 [Compound 1, 9-((3aR,4R,6R,6aR)-6-(((tert-butyldiphenylsilyl)oxy)methyl)-2,2-dimethyltetrahydrofuro[3,4-d][1,3]dioxol-4-yl)-N-(3-fluorobenzyl)-N-methyl-9H-purin-6-amine]
- IC50 [1]: ≥ 30 µM

Structure (SMILES): CN(Cc1cccc(F)c1)c1ncnc2c1ncn2[C@@H]1O[C@H](COC(=O)Nc2ccccc2)[C@H]2OC(C)(C)O[C@H]21 [Compound 3, ((3aR,4R,6R,6aR)-6-(6-((3-fluorobenzyl)(methyl)amino)-9H-purin-9-yl)-2,2-dimethyltetrahydrofuro[3,4-d][1,3]dioxol-4-yl)methyl phenylcarbamate]
- IC50 [1]: 15.1 to 30 µM

Structure (SMILES): CN(Cc1cccc(F)c1)c1ncnc2c1ncn2[C@@H]1O[C@H](COC(=S)Nc2ccccc2)[C@H]2OC(C)(C)O[C@H]21 [Compound 4, O-(((3aR,4R,6R,6aR)-6-(6-((3-fluorobenzyl)(methyl)amino)-9H-purin-9-yl)-2,2-dimethyltetrahydrofuro[3,4-d][1,3]dioxol-4-yl)methyl) phenylcarbamothioate]
- IC50 [1]: 15.1 to 30 µM

Structure (SMILES): CN(Cc1cccc(F)c1)c1ncnc2c1ncn2[C@@H]1O[C@H](COC(=O)Nc2ccccc2)[C@@H](O)[C@H]1O [Compound 6, ((2R,3S,4R,5R)-5-(6-((3-fluorobenzyl)(methyl)amino)-9H-purin-9-yl)-3,4-dihydroxytetrahydrofuran-2-yl)methyl phenylcarbamate]
- IC50 [1]: 5.1 to 15 µM

Structure (SMILES): CN(Cc1cccc(F)c1)c1ncnc2c1ncn2[C@@H]1O[C@H](COC(=O)c2ccccc2)[C@@H](O)[C@H]1O [Compound 9, ((2R,3S,4R,5R)-5-(6-((3-fluorobenzyl)(methyl)amino)-9H-purin-9-yl)-3,4-dihydroxytetrahydrofuran-2-yl)methyl benzoate]
- IC50 [1]: 5.1 to 15 µM

Structure (SMILES): CN(Cc1cccc(F)c1)c1ncnc2c1ncn2[C@@H]1O[C@H](COCc2ccc3ccccc3c2Br)[C@H]2OC(C)(C)O[C@H]21 [Compound 17, 9-((3aR,4R,6R,6aR)-6-(((1-bromonaphthalen-2-yl)methoxy)methyl)-2,2-dimethyltetrahydrofuro[3,4-d][1,3]dioxol-4-yl)-N-(3-fluorobenzyl)-N-methyl-9H-purin-6-amine]
- IC50 [1]: 1.1 to 5 µM
- IC50 [2]: 1.1 to 5 µM

Structure (SMILES): CN(Cc1cccc(F)c1)c1ncnc2c1ncn2[C@@H]1O[C@H](COCc2ccc3ccccc3c2)[C@@H](O)[C@H]1O [Compound 18, (2R,3R,4S,5R)-2-(6-((3-fluorobenzyl)(methyl)amino)-9H-purin-9-yl)-5-((naphthalen-2-ylmethoxy)methyl)tetrahydrofuran-3,4-diol]
- IC50 [1]: 1.1 to 5 µM
- IC50 [2]: 15.1 to 30 µM

Structure (SMILES): CN(Cc1cccc(F)c1)c1ncnc2c1ncn2[C@@H]1O[C@H](COCc2ccc3ccccc3c2Br)[C@@H](O)[C@H]1O [Compound 19, (2R,3S,4R,5R)-2-(((1-bromonaphthalen-2-yl)methoxy)methyl)-5-(6-((3-fluorobenzyl)(methyl)amino)-9H-purin-9-yl)tetrahydrofuran-3,4-diol]
- IC50 [1]: 1.1 to 5 µM
- IC50 [2]: 1.1 to 5 µM

Structure (SMILES): CN(Cc1cccc(F)c1)c1ncnc2c1ncn2[C@@H]1O[C@H](CO[Si](C)(C)C(C)(C)C)[C@@H](O)[C@H]1O [Compound 20, (2R,3S,4R,5R)-2-(((tert-butyldimethylsilyl)oxy)methyl)-5-(6-((3-fluorobenzyl)(methyl)amino)-9H-purin-9-yl)tetrahydrofuran-3,4-diol]
- IC50 [1]: 1.1 to 5 µM
- IC50 [2]: 1.1 to 5 µM

Structure (SMILES): COc1ccc(C(OC[C@H]2O[C@@H](n3cnc4c(Cl)ncnc43)[C@H](O)[C@@H]2O)(c2ccccc2)c2ccc(OC)cc2)cc1 [Compound 23, (2R,3S,4R,5R)-2-((bis(4-methoxyphenyl) (phenyl)methoxy)methyl)-5-(6-chloro-9H-purin-9-yl)tetrahydrofuran-3,4-diol]
- IC50 [1]: 1.1 to 5 µM
- IC50 [2]: ≥ 30 µM

Results, then the compound that gave them:

- IC50 [1]: 1.1 to 5 µM
- IC50 [2]: ≥ 30 µM
Structure (SMILES): CN(Cc1cccc(F)c1)c1ncnc2c1ncn2[C@@H]1O[C@H](COC(=S)Nc2ccccc2)[C@@H](O)[C@H]1O [Compound 7, O-(((2R,3S,4R,5R)-5-(6-((3-fluorobenzyl)(methyl)amino)-9H-purin-9-yl)-3,4-dihydroxytetrahydrofuran-2-yl)methyl) phenylcarbamothioate]

- IC50 [1]: < 1 µM
- IC50 [2]: 1.1 to 5 µM
Structure (SMILES): CN(Cc1cccc(F)c1)c1ncnc2c1ncn2[C@@H]1O[C@H](CO[Si](c2ccccc2)(c2ccccc2)C(C)(C)C)[C@@H](O)[C@H]1O [Compound 8, (2R,3S,4R,5R)-2-(((tert-butyldiphenylsilyl)oxy)methyl)-5-(6-((3-fluorobenzyl)(methyl)amino)-9H-purin-9-yl)tetrahydrofuran-3,4-diol]

- IC50 [1]: < 1 µM
- IC50 [2]: 1.1 to 5 µM
Structure (SMILES): CN(Cc1cccc(F)c1)c1ncnc2c1ncn2[C@@H]1O[C@H](COCc2ccc(-c3ccccc3)cc2)[C@@H](O)[C@H]1O [Compound 13, (2R,3S,4R,5R)-2-(([1,1′-biphenyl]-4-ylmethoxy)methyl)-5-(6-((3-fluorobenzyl)(methyl)amino)-9H-purin-9-yl)tetrahydrofuran-3,4-diol]

- IC50 [1]: < 1 µM
- IC50 [2]: 5.1 to 15 µM
Structure (SMILES): CN(Cc1cccc(F)c1)c1ncnc2c1ncn2[C@@H]1O[C@H](COCc2cc(C(F)(F)F)cc(C(F)(F)F)c2)[C@@H](O)[C@H]1O [Compound 14, (2R,3S,4R,5R)-2-(((3,5-bis(trifluoromethyl)benzyl)oxy)methyl)-5-(6-((3-fluorobenzyl)(methyl)amino)-9H-purin-9-yl)tetrahydrofuran-3,4-diol]

- IC50 [1]: 1.1 to 5 µM
- IC50 [2]: 1.1 to 5 µM
Structure (SMILES): CN(Cc1cccc(F)c1)c1ncnc2c1ncn2[C@@H]1O[C@H](COCc2ccc(S(F)(F)(F)(F)F)cc2)[C@@H](O)[C@H]1O [Compound 15, (2R,3R,4S,5R)-2-(6-((3-fluorobenzyl)(methyl)amino)-9H-purin-9-yl)-5-(((4-(pentafluorothio)benzyl)oxy)methyl)tetrahydrofuran-3,4-diol]

- IC50 [1]: 1.1 to 5 µM
- IC50 [2]: 5.1 to 15 µM
Structure (SMILES): CN(Cc1cccc(F)c1)c1ncnc2c1ncn2[C@@H]1O[C@H](COCc2ccc3ccccc3c2)[C@H]2OC(C)(C)O[C@H]21 [Compound 16, 9-((3aR,4R,6R,6aR)-2,2-dimethyl-6-((naphthalen-2-ylmethoxy)methyl)tetrahydrofuro[3,4-d][1,3]dioxol-4-yl)-N-(3-fluorobenzyl)-N-methyl-9H-purin-6-amine]

- IC50 [1]: < 1 µM
- IC50 [2]: 1.1 to 5 µM
Structure (SMILES): CN(Cc1cccc(F)c1)c1ncnc2c1ncn2[C@@H]1O[C@H](CO[Si](c2ccccc2)(c2ccccc2)c2ccccc2)[C@@H](O)[C@H]1O [Compound 21, (2R,3R,4S,5R)-2-(6-((3-fluorobenzyl)(methyl)amino)-9H-purin-9-yl)-5-(((triphenylsilyl)oxy)methyl)tetrahydrofuran-3,4-diol]

- IC50 [1]: < 1 µM
- IC50 [2]: 5.1 to 15 µM
Structure (SMILES): O[C@@H]1[C@H](O)[C@@H](COC(c2ccccc2)(c2ccccc2)c2ccccc2)O[C@H]1n1cnc2c(Cl)ncnc21 [Compound 22, (2R,3R,4S,5R)-2-(6-chloro-9H-purin-9-yl)-5-((trityloxy)methyl)tetrahydrofuran-3,4-diol]

- IC50 [1]: < 1 µM
- IC50 [2]: 1.1 to 5 µM
Structure (SMILES): CN(Cc1cccc(F)c1)c1ncnc2c1ncn2[C@@H]1O[C@H](COC(c2ccccc2)(c2ccccc2)c2ccccc2)[C@@H](O)[C@H]1O [Compound 24, (2R,3R,4S,5R)-2-(6-((3-fluorobenzyl)(methyl)amino)-9H-purin-9-yl)-5-((trityloxy)methyl)tetrahydrofuran-3,4-diol]

- IC50 [1]: < 1 µM
- IC50 [2]: < 1 µM
Structure (SMILES): COc1ccc(C(OC[C@H]2O[C@@H](n3cnc4c(N(C)Cc5cccc(F)c5)ncnc43)[C@H](O)[C@@H]2O)(c2ccccc2)c2ccc(OC)cc2)cc1 [Compound 25, (2R,3S,4R,5R)-2-((bis(4-methoxyphenyl) (phenyl)methoxy)methyl)-5-(6-((3-fluorobenzyl)(methyl)amino)-9H-purin-9-yl)tetrahydrofuran-3,4-diol]
